Measurements reported in patent US20250281596A1, “IONIZABLE CATIONIC COMPOUND” (priority 2021, published 2025).

tested on: not listed separately; assay: physchem; type: physicochemical; conditions: saRNA-LNP with the lipid; TNS, pH 4 to 9.5, 25° C.; read-out: Apparent pKa
Method: In a black 96-well plate, solutions of saRNA-LNP (final assay concentration 2 μg/mL total RNA) in a series of buffers ranging from pH 4 to 9.5 were prepared. Buffers between pH 4 to 7.6 were prepared from disodium phosphate and citric acid. Buffers from 7.8 to 9.5 were prepared by titrating tris buffer with 10 N sodium hydroxide. To each well was added 6-(p-Toluidino)-2-naphthalenesulfonic acid sodium salt (TNS) in water to a final assay concentration of 6 μM. The fluorescence was read on a plate reader at 25° C. with an excitation setting of 321 nm and an emission setting of 445 nm. The intensity values were plotted as a function of pH using GraphPad Prism and were fit with a sigmoidal dose response curve. The apparent pKa was determined as the EC50 of this curve where half of the ionizable amines are expected to be protonated (see FIG. 1).

| SMILES | pKa |
| --- | --- |
| CCCCCCCCCC(CCCCCCCCC(=O)OCC(CCCC)CCCCCC)OC(=O)CC1CCN(C)CC1 (stereo not drawn) [SL14] | 6.63 |
| CCCCCCCCCC(CCCCCCCCC(=O)OCC(CCCC)CCCCCC)OC(=O)CCC1CCN(C)CC1 (stereo not drawn) [SL15] | 7.13 |

tested on: BHK-21 cells; assay: In vitro potency: transfection of BHK-21 cells, 96-well imaging (Cytation 5); type: cell-based; conditions: LNPs encapsulating saRNA expressing H5 and N1, FIG. 3
Method: For LNPs prepared with SL16, SL17, SL18, and SL21, a similar assay was performed in a 96-well plate using BHK-21 cells and analysed using a Cytation 5 Cell Imaging Multimode Reader (Agilent). The results of this assay were analysed in the same way as described for the flow cytometry assay, except only an H5-antibody was used for detection. In vitro transfection potency was determined for LNPs containing lipids SL16, SL17, SL18, and SL21. […] SL16 LNP, SL17 LNP, and SL18 LNP were formulated using a flow-rate ratio of 2:1. SL17 LNP2, SL18 LNP2, and SL21 were formulated using a flow-rate ratio of 3:1 (FIG. 3).

| SMILES | Ability to transfect cells (H5-antibody detection) |
| --- | --- |
| CCCCCCCCCC(CCCCCCCCC(=O)OCC(CCCC)CCCCCC)OC(=O)C1CCN(CCCO)CC1 (stereo not drawn) [SL16] | able to transfect BHK-21 cells in vitro |
| CCCCCCCCCC(CCCCCCCCC(=O)OCC(CCCC)CCCCCC)OC(=O)CC1CCN(CCCO)CC1 (stereo not drawn) [SL17] | able to transfect BHK-21 cells in vitro |
| CCCCCCCCCC(CCCCCCCCC(=O)OCC(CCCC)CCCCCC)OC(=O)CCC1CCN(CCCO)CC1 (stereo not drawn) [SL18] | able to transfect BHK-21 cells in vitro |
| CCCCCCCCCC(CCCCCCCCOC(=O)CC(CCCC)CCCCCC)OC(=O)CC1CCN(CCCO)CC1 (stereo not drawn) [SL21] | able to transfect BHK-21 cells in vitro |
